Laboratory results: patent US20210002231A1 (Centre National de la Recherche Scientifique, priority 2018, published 2021)
Starred links: 1 amine or outer side, 2 acyl side, 3 side chain; linkers in the order of their positions; H or OH if unused. Non-standard residues stand in square brackets, D forms with d. Residues, ends and D or L forms follow the SMILES beside them. Nva(5-(4-Bn-piperidin-1-yl)) = N[C@@H](CCCN1CCC(Cc2ccccc2)CC1)C(=O)O; X1 = O=C1[C@@H](N[*:1])Cc2ccccc2CN1CCC(=O)[*:2]; Dmt = Cc1cc(O)cc(C)c1C[C@H](N)C(=O)O

Key:
NPFF2R [1] = target: T1, NPFF2R (Homo sapiens, UniProt Q9Y5X5); assay: Glo-sensor cAMP assay, agonist and antagonist mode; format: cell-based; parameters: expressed in transfected cells; HEK293-Glo20F cells (cAMP); conditions: evaluated at 0.5 and 5 μM
T1 sequence (Q9Y5X5 whole entry): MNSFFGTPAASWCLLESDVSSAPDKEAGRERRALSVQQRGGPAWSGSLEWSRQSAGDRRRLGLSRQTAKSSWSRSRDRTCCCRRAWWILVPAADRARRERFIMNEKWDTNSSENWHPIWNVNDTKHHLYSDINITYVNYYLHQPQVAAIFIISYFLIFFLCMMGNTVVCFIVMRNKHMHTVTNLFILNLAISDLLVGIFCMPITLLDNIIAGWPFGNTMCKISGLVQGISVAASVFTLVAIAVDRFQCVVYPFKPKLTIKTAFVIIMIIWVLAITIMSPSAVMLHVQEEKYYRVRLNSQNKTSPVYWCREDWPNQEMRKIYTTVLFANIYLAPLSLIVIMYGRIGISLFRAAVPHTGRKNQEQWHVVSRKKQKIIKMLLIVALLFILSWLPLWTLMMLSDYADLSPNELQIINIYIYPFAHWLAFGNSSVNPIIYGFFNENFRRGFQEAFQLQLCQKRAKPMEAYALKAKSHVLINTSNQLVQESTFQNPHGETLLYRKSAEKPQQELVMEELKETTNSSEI

NPFF2R [2] = target: T1, NPFF2R; assay: Radioligand competition binding with [125I]-1-DMe-NPFF; parameters: expressed in transfected cells; HEK293-Glo20F cells (cAMP)
human NPFF1R = human NPFF1R (Homo sapiens, UniProt Q9GZQ6); assay: as above; parameters: expressed in transfected cells; HEK293-Glo20F cells (cAMP)
Chain of human NPFF1R (Q9GZQ6 whole entry): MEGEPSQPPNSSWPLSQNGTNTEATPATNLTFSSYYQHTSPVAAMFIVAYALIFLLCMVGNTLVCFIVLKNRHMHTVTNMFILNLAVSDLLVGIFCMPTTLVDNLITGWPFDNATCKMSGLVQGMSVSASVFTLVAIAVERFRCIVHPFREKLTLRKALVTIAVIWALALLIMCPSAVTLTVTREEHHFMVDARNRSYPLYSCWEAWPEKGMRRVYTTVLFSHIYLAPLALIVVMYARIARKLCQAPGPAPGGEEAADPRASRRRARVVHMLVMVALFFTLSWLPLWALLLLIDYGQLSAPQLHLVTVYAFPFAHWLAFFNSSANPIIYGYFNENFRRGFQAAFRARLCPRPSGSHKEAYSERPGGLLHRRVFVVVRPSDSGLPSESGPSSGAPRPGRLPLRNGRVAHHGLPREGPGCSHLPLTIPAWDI

human MOPr [3] = target: T2, human MOPr (Homo sapiens, UniProt P35372); assay: BRET1 β-arrestin-2 recruitment assay; format: cell-based; parameters: expressed in transfected cells; host or cells: HEK293 cells stably expressing eYFP-β-arrestin-2, transiently transfected with the Rluc8-MOP plasmid; conditions: for EC50: Table 3B, — = non-detectable recruitment, read-out: MOPr (β-arrestin-2) EC50; for Emax: read-out: MOPr (β-arrestin-2) Emax;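 for MOPr (β-arrestin-2) Emax: Emax relative to maximal DAMGO-induced BRET as 100%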
T2 sequence (P35372 whole entry): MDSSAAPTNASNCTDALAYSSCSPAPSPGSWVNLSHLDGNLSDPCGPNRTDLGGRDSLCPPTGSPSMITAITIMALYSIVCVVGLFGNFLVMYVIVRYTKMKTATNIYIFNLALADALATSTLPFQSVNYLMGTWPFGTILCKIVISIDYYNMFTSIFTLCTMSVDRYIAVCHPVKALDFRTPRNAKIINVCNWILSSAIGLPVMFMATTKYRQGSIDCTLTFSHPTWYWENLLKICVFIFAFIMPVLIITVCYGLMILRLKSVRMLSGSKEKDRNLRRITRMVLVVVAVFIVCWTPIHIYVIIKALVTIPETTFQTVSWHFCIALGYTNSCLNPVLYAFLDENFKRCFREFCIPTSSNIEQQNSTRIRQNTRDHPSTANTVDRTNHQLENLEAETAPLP
In short: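 HEK293 cells stably expressing eYFP-β-arrestin-2 were transfected two days before with Rluc8-tagged MOP receptor. BRET was read at 37 °C with 5 μM coelenterazine H, 5 min after agonist addition.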

human MOPr [4] = target: T2, human MOPr; assay: cell-based; format: cell-based; parameters: expressed in transfected cells; HEK293-Glo20F cells (cAMP); conditions: for EC50: Table 3B, read-out: MOPr (cAMP) EC50; for Emax: read-out: MOPr (cAMP) Emax
In short: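 GTPγS binding used membranes of CHO cells expressing NPFF1R or NPFF2R, stimulated by RF-amide peptides or test compounds. cAMP was measured in HEK293 cells stably carrying Glosensor-20F, with or without stable expression of an opioid receptor or NPFF1R, in the presence of 1 mM D-luciferin.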
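Throughout, for MOPr (cAMP) Emax: Emax relative to DAMGO as 100%.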

SMILES	NPFF2R (cAMP) Agonist mode (NPFF2R [1])	IC50 (NPFF2R [2]) [nM]	IC50 (human NPFF1R) [nM]	EC50 (human MOPr [3]) [nM]	Emax (human MOPr [3]) [%]	EC50 (human MOPr [4]) [nM]	Emax (human MOPr [4]) [%]
Cc1cc(O)cc(C)c1C[C@H](N)C(=O)N[C@H](CCCNC(=N)N)C(=O)N[C@H]1Cc2ccccc2CN(CCC(=O)N[C@@H](CCCN2CCC(Cc3ccccc3)CC2)C(=O)N[C@H](C(N)=O)C(C)C)C1=O [DP0001, H-Dmt-D-Arg-Aba-β-Ala-Bpa-Val-NH2] (H-[Dmt][dR][X1][Nva(5-(4-Bn-piperidin-1-yl))]V-NH2)	Partial	< 50	~500	101	52	16.9 ± 8.3	124
CC[C@H](C)[C@H](NC(=O)[C@H](CCCN1CCC(Cc2ccccc2)CC1)NC(=O)CCN1Cc2ccccc2C[C@H](NC(=O)[C@@H](CCCNC(=N)N)NC(=O)[C@@H](N)Cc2c(C)cc(O)cc2C)C1=O)C(N)=O [DP0002, H-Dmt-D-Arg-Aba-β-Ala-Bpa-Ile-NH2] (H-[Dmt][dR][X1][Nva(5-(4-Bn-piperidin-1-yl))]I-NH2)	Partial	< 50	50 to 500	45	49	8.9 ± 2.6	110
Cc1cc(O)cc(C)c1C[C@H](N)C(=O)N[C@H](CCCNC(=N)N)C(=O)N[C@H]1Cc2ccccc2CN(CCC(=O)N[C@@H](CCCN2CCC(Cc3ccccc3)CC2)C(=O)N[C@@H](CC(C)C)C(N)=O)C1=O [DP0003, H-Dmt-D-Arg-Aba-β-Ala-Bpa-Leu-NH2] (H-[Dmt][dR][X1][Nva(5-(4-Bn-piperidin-1-yl))]L-NH2)	Partial	< 50	50 to 500	37	38	20.1 ± 10	70
